Experimental data from ChEMBL document CHEMBL5465560, “Selectivity Literature for EUbOPEN Chemogenomic Library” (2024).

Columns and labels:
[1] = molecular target: Non-receptor tyrosine-protein kinase TYK2 (Homo sapiens, UniProt P29597); test: Selectivity interaction (KinomeScan (DiscoverX)) EUB0000229b TYK2; conditions: at 10 µM
Focal adhesion kinase 1 = Focal adhesion kinase 1 (Homo sapiens, UniProt Q05397); test: Selectivity interaction (KinomeScan (DiscoverX)) EUB0000229b PTK2; conditions: at 10 µM
[2] = molecular target: Calcium/calmodulin-dependent protein kinase type 1G (Homo sapiens) (UniProt Q96NX5); test: Selectivity interaction (KinomeScan (DiscoverX)) EUB0000092b CAMK1G; conditions: at 10 µM
Chain of Calcium/calmodulin-dependent protein kinase type 1G (Homo sapiens) (Q96NX5 whole entry): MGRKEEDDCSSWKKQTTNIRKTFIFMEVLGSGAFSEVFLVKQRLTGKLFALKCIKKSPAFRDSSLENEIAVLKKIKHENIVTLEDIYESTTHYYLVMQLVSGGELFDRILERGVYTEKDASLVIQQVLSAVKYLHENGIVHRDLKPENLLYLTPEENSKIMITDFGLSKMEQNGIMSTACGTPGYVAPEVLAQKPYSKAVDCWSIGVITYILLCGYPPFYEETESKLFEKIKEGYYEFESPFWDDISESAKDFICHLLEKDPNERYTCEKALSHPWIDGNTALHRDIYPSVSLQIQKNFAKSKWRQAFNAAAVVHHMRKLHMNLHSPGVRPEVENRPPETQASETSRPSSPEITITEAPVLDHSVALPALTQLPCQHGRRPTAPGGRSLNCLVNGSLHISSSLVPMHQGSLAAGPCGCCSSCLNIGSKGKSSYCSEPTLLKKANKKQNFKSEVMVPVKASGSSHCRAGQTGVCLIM

[3] = molecular target: MAP/microtubule affinity-regulating kinase 3 (Homo sapiens) (UniProt P27448); test: Selectivity interaction (KinomeScan (DiscoverX)) EUB0000655a MARK3; conditions: at 10 µM
Chain of MAP/microtubule affinity-regulating kinase 3 (Homo sapiens) (P27448 whole entry, looked up): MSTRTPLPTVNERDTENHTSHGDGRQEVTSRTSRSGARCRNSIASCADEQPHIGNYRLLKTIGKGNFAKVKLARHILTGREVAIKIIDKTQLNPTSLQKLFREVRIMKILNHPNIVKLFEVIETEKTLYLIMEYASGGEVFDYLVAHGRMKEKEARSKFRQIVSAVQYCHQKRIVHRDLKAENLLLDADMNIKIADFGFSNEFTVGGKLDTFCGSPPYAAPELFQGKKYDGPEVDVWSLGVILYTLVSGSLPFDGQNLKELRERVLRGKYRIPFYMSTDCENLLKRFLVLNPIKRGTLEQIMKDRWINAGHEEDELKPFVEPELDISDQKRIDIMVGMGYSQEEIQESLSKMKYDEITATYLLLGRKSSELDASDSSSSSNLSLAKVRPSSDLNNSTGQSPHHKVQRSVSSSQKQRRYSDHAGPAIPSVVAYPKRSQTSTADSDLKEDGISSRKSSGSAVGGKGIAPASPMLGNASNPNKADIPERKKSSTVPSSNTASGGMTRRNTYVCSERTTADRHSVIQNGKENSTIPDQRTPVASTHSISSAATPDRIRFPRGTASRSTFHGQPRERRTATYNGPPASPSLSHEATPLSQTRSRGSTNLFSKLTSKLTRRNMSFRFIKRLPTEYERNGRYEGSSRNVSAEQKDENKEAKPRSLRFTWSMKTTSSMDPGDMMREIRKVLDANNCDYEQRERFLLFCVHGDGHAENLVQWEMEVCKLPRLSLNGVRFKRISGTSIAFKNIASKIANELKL

[4] = molecular target: T1, Mitogen-activated protein kinase kinase kinase 19 (Homo sapiens) (UniProt Q56UN5); test: Selectivity interaction (KinomeScan (DiscoverX)) EUB0000655a MAP3K19; conditions: at 10 µM
T1 sequence (whole entry): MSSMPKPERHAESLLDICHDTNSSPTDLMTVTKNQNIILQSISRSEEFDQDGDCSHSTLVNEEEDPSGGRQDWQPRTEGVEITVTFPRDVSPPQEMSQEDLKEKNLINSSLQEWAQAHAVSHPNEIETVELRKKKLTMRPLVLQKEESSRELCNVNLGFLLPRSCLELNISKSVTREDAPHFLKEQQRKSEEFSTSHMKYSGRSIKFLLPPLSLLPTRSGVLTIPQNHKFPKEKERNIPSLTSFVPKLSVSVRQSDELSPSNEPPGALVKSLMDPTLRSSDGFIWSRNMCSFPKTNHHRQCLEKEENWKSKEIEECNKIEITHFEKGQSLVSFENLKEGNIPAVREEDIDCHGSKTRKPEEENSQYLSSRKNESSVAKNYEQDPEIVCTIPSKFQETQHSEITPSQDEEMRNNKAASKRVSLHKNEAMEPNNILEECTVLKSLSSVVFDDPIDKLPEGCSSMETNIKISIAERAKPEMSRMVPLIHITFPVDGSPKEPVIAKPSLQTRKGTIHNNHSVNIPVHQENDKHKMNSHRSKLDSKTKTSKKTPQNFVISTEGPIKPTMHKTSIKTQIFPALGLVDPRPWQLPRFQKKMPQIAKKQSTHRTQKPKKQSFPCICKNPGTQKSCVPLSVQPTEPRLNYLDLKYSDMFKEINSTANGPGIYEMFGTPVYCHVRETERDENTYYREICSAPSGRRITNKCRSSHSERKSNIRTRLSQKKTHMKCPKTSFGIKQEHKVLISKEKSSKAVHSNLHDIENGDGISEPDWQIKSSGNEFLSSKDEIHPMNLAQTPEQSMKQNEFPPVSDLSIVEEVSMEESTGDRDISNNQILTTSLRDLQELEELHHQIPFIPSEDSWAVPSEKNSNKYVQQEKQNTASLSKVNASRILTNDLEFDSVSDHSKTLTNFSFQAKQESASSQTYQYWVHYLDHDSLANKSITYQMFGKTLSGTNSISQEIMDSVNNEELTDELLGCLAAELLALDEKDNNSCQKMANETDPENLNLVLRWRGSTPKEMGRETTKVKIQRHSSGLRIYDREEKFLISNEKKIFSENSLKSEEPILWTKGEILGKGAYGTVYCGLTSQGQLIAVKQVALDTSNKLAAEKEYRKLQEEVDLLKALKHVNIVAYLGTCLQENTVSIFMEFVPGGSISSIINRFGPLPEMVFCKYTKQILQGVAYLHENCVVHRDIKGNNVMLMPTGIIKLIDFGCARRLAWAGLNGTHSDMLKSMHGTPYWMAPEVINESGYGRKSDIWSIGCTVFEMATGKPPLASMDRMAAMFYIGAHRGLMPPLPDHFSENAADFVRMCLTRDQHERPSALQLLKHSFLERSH

[5] = molecular target: Ribosomal protein S6 kinase alpha-6 (Homo sapiens, UniProt Q9UK32); test: Selectivity interaction (KinomeScan (DiscoverX)) EUB0000655a RPS6KA6; conditions: at 10 µM
Chain of Ribosomal protein S6 kinase alpha-6 (Q9UK32 whole entry): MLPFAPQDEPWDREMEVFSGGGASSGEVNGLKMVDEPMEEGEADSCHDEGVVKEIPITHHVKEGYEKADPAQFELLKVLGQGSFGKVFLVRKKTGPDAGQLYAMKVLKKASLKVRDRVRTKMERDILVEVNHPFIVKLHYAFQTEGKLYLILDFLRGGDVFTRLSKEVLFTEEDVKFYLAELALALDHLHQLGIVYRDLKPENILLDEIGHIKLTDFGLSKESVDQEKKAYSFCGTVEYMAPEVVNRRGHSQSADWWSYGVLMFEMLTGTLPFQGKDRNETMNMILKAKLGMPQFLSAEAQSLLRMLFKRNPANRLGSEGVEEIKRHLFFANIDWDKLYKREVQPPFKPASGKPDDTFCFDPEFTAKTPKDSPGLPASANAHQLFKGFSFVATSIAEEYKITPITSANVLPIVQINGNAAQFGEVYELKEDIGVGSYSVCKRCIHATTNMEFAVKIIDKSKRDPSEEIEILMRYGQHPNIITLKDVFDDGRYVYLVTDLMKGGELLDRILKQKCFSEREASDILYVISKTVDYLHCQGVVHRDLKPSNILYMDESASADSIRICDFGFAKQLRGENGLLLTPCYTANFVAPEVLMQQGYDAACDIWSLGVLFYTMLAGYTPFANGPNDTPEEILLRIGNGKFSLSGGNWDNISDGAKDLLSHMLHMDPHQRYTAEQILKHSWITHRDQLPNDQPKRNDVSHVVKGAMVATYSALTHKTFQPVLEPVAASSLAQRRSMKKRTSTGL

[6] = molecular target: Serine/threonine-protein kinase PLK1 (Homo sapiens, UniProt P53350); test: Selectivity interaction (KinomeScan (DiscoverX)) EUB0001079a PLK1; conditions: at 1 µM
Chain of Serine/threonine-protein kinase PLK1 (P53350 whole entry): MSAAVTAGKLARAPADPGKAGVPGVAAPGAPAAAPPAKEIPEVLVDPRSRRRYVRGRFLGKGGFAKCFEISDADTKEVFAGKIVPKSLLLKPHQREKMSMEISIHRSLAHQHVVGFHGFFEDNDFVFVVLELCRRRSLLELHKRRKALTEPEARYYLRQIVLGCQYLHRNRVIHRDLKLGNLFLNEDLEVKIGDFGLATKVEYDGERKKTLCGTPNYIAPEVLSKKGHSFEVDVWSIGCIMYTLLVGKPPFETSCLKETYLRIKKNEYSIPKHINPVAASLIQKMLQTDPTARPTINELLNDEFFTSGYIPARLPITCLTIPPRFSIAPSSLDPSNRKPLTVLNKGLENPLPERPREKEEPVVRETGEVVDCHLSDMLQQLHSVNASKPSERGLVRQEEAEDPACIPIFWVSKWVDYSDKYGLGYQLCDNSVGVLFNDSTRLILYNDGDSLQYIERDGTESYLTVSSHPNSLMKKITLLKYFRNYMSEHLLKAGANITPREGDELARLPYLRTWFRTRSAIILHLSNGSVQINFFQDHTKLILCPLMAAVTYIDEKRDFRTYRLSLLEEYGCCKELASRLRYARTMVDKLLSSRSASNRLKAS

[7] = molecular target: T2, Serine/threonine-protein kinase PLK4 (Homo sapiens) (UniProt O00444); test: Selectivity interaction (LanthaScreen Eu Kinase Binding Assay) EUB0001632a PLK4; conditions: at 10 µM
T2 sequence (whole entry): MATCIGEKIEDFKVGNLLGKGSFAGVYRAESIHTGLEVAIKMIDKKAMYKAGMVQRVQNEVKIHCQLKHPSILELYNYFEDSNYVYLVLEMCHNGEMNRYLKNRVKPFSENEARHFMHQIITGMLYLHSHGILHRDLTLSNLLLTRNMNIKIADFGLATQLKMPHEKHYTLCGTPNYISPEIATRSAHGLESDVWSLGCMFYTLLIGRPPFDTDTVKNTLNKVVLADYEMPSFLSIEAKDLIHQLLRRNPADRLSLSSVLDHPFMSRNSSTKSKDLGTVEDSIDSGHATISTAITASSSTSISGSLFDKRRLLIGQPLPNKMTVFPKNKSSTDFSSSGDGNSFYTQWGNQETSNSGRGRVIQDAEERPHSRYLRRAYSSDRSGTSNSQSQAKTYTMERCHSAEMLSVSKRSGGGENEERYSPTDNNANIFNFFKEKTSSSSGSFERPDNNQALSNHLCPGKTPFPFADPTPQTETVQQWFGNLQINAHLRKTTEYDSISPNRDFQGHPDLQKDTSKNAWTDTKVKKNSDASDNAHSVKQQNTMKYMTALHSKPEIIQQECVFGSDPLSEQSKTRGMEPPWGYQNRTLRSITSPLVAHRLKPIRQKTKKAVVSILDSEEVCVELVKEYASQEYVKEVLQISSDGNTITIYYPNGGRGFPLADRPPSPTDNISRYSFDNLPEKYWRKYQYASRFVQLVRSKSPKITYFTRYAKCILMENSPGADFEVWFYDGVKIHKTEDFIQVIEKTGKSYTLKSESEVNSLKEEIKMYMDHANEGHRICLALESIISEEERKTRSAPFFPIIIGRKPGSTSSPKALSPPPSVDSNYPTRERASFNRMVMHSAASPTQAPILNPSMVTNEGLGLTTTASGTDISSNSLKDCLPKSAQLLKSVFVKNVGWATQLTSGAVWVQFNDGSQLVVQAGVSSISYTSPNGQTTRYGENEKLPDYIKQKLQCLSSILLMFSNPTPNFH

[8] = molecular target: Serine/threonine-protein kinase pim-1 (Homo sapiens, UniProt P11309)
Chain of Serine/threonine-protein kinase pim-1 (P11309 whole entry): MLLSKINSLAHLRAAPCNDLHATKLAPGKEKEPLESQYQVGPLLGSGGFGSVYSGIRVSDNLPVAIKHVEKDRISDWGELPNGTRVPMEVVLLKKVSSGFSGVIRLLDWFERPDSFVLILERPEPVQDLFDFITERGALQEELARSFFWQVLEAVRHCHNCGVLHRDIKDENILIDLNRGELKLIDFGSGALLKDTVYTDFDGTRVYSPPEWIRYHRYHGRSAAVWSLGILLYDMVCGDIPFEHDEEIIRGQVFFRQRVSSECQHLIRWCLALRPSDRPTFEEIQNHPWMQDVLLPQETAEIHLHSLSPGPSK

[9] = molecular target: Serine/threonine-protein kinase 32A (Homo sapiens) (UniProt Q8WU08); test: Selectivity interaction (KinomeScan (DiscoverX)) EUB0001049a STK32A; conditions: at 1 µM
Chain of Serine/threonine-protein kinase 32A (Homo sapiens) (Q8WU08 whole entry): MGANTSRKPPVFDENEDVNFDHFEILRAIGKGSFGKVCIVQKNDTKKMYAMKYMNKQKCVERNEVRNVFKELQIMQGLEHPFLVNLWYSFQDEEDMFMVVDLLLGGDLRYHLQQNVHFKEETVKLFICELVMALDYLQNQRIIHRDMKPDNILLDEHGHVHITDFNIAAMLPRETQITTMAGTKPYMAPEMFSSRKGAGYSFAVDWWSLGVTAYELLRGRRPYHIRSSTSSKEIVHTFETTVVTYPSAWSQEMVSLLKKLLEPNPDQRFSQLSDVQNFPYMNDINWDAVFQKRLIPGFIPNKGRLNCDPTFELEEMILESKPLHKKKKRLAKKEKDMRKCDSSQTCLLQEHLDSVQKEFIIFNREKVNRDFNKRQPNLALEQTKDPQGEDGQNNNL

Chain of Non-receptor tyrosine-protein kinase TYK2 (P29597 whole entry): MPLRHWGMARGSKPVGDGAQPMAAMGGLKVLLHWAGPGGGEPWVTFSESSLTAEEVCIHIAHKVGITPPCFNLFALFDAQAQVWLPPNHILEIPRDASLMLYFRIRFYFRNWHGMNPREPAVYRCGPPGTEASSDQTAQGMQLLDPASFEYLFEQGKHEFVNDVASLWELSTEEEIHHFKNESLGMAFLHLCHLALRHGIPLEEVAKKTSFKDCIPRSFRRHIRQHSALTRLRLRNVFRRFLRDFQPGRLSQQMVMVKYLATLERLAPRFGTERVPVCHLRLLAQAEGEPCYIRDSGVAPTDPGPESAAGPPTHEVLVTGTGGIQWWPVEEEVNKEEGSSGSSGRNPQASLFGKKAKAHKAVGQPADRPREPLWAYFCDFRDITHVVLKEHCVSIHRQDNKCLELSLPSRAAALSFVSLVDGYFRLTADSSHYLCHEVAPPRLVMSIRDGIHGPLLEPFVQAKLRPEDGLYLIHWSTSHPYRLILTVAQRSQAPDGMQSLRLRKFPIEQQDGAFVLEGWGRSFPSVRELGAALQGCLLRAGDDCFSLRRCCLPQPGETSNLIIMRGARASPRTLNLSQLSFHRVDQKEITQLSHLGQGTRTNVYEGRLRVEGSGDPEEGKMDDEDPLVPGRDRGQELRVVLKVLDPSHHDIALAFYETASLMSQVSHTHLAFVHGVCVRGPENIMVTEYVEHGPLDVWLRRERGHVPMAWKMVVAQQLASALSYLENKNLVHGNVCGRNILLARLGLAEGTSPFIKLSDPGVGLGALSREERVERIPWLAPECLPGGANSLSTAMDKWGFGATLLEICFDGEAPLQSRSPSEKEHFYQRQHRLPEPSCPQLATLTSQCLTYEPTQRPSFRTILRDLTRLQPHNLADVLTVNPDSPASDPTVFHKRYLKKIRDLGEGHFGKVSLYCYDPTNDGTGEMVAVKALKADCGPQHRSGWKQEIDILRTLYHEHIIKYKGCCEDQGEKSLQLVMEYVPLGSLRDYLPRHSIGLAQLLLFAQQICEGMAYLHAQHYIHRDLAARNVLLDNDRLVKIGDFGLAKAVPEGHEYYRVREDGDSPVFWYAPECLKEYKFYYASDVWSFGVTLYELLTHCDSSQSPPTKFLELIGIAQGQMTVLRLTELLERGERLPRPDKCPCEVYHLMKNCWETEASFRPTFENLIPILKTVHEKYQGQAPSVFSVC

**Q.** With `COc1cc(N(C)c2ccnc3ccc(C(F)(F)F)cc23)cc(OC)c1OC` as the molecule, how does the % binding [1] read?
**A.** 89%

**Q.** And the % binding (Focal adhesion kinase 1)?
**A.** 100%

**Q.** For `CCC(=O)N1CCN(c2ccc(-n3c(=O)ccc4cnc5ccc(-c6cnc7ccccc7c6)cc5c43)cc2C(F)(F)F)CC1`, which % of control [2] is on record?
**A.** 74%

**Q.** For `CN(C)CCOc1ccc(-c2nc(-c3ccncc3)c(-c3ccc4c(c3)CC/C4=N\O)[nH]2)cc1`, which % of control [3] is on record?
**A.** 95%

**Q.** What about the % of control [4] of the same molecule?
**A.** 30%

**Q.** And the % of control [5]?
**A.** 88%

**Q.** With `Nc1cnc(N2CCc3cc(S(=O)(=O)Nc4c(F)cc(Cl)cc4F)cc(N4CCCC4=O)c32)nc1` [TP-020n] as the molecule, how does the % of control [6] read?
**A.** 100%

**Q.** For `Cn1cc(-n2cnc3c(NCc4nc5cc(Cl)c(Cl)cc5[nH]4)nc(N4CCOCC4)nc32)cn1`, which % of inhibition [7] is on record?
**A.** 0.376%

**Q.** Which IC50 [8] does the source give for `CCc1cccc(CC)c1NC(=O)c1nn(C)c2c1CCc1cnc(Nc3ccc(C(=O)NC4CCN(C)CC4)cc3OC(F)(F)F)nc1-2` here?
**A.** > 10 µM

**Q.** With `COc1cc(Nc2nc(C)cc(-c3cnn4nc(OC)ccc34)n2)cc(C(F)(F)F)c1` as the molecule, how does the % of control [9] read?
**A.** 63%
